# Measurements: patent US4579822A (priority 1983, dated 1986)
# Where two headings read alike, the source gives them in different places.
# How the values were obtained:
# Assay type in all cases: biochemical, Schizosaccharomyces pombe IFO 0354
# [1] = target: T1, DHAK (I) (Schizosaccharomyces pombe, UniProt O13902); experiment: Substrate specificity of DHAK (I)
# T1 construct: DHAK (I) and DHAK (II) obtained from Schizosaccharomyces pombe IFO 0354; made in house; host or cells: Schizosaccharomyces pombe IFO 0354 (natural producer, not recombinant); cell extract, DEAE-Sepharose fraction at 0.12 M KCl, then Blue-Sepharose
# T1 sequence (O13902 1-580): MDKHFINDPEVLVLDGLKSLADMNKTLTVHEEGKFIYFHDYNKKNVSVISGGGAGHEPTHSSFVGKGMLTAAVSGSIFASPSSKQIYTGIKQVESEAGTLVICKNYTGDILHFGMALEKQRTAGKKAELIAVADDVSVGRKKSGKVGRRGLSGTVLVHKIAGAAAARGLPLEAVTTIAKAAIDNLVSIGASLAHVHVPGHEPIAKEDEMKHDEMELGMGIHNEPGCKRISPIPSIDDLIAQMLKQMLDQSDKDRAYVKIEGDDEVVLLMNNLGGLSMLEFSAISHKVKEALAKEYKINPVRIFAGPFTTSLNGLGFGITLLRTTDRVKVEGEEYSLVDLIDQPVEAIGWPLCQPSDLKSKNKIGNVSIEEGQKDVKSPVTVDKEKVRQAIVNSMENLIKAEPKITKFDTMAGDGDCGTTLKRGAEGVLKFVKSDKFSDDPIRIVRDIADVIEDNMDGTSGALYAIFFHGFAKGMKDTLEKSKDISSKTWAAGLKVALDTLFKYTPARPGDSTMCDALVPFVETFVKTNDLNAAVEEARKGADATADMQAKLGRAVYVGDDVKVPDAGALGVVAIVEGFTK
# Experimental: (§1) The reaction mixture for measuring the substrate specificity of DHAK consists of 1.0 ml of 0.1M triethanolamine-HCl buffer (pH 7.5), 2.5 mM ATP, 4 mM MgSO4, 0.2 mM NADH, 1.3 mM phosphoenolpyruvate, 6 units of pyruvate kinase, 6 units of lactate dehydrogenase (Boehringer Mannheim GmbH), 0.01 ml of enzyme solution and each substrate (1.0 mM) as shown in Table 1. The reaction is started by adding enzyme solution and measured the decrease in the absorbance at 340 nm at 25° C. The above reaction is represented by the following equations: [drawing 4]
# [2] = test system: DHAK (II); experiment: Substrate specificity of DHAK (II); details: for Relative activity DHAK (II) (substrate): each substrate 1.0 mM, pH 7.5, 25° C., DHA = 100%; for Action of DHAK (II) on substrate (in words): summary of Table 1
# Experimental: as §1
# [3] = target: T1, DHAK (I); experiment: Specificity of DHAK (I) for phosphate donor; details: for Relative activity DHAK (I) (phosphate donor): Adenosine 5'-triphosphate = 100%
# Experimental: (§2) The reaction is started by adding enzyme solution, and the decrease of the absorbance at 340 nm is measured spectrophotometrically at 25° C. In the blank assay, DHA is excluded from the reaction mixture. One unit of the enzyme activity is defined as the amount of enzyme which catalyzes the formation of 1 μmol NAD^+ in one minute under the above conditions. The above reaction is represented by the following equations: [drawing 3]
# [4] = target: T2, DHAK (II) (Schizosaccharomyces pombe, UniProt O74215); experiment: Specificity of DHAK (II) for phosphate donor; details: for Relative activity DHAK (II) (phosphate donor): Adenosine 5'-triphosphate = 100%
# T2 construct: DHAK (I) and DHAK (II) obtained from Schizosaccharomyces pombe IFO 0354; made in house; host or cells: Schizosaccharomyces pombe IFO 0354 (natural producer, not recombinant); cell extract, DEAE-Sepharose fraction at 0.16 M KCl, then Blue-Sepharose
# T2 sequence (O74215 1-591): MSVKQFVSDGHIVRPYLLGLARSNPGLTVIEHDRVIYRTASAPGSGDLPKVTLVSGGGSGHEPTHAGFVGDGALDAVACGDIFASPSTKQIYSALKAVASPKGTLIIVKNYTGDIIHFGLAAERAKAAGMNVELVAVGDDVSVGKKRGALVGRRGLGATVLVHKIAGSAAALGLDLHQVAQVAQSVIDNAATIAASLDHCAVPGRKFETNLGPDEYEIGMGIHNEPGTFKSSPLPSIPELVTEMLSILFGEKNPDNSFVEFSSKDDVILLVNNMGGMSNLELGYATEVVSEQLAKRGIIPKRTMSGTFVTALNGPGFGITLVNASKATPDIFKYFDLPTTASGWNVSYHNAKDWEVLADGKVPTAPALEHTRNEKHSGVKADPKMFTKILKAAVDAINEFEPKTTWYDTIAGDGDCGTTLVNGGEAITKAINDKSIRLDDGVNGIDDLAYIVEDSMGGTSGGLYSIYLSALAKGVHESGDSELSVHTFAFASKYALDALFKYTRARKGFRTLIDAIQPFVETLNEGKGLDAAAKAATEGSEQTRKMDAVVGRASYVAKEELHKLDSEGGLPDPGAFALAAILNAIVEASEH
# Experimental: as §2
# [5] = target: T2, DHAK (II); experiment: Specificity of DHAK (II) for divalent metal cations; details: for Relative activity DHAK (II) (metal cation): each divalent metal cation 4 mM, MgSO4 = 100%
# Experimental: as §2
# (§3) Each divalent metal cation (4 mM) was added to the reaction mixture and the activity of the enzyme was measured.
# [6] = target: T1, DHAK (I); experiment: Specificity of DHAK (I) for divalent metal cations; details: for Relative activity DHAK (I) (metal cation): each divalent metal cation 4 mM, MgSO4 = 100%
# Experimental: as §2, §3
# [7] = pH 7.5, read-out: Relative activity DHAK (I) (substrate)
# [8] = pH 7.5; read-out: Relative activity DHAK (I) (substrate)
# [9] = cation 4 mM, summary of Table 3
# [10] = concentration in the reaction mixture
smiles,measurement,setting,value
O=CC(O)CO (racemic) [DL-Glyceraldehyde],activity at 1000 µM,[1]; [7],27%
same,Action of DHAK (I) on substrate (in words),[1]; summary of Table 1,slightly
same,Relative activity DHAK (II) (substrate),[2],12%
same,Action of DHAK (II) on substrate (in words),[2],slightly
O=C(O)C(O)CO (racemic) [DL-Glyceric acid],activity at 1000 µM,[1]; [8],0%
same,Relative activity DHAK (II) (substrate),[2],0%
"CC(O)CO (centres unmarked) [1,2-Propanediol]",activity at 1000 µM,[1]; [7],0%
same,Relative activity DHAK (II) (substrate),[2],0%
"OCCCO [1,3-Propanediol]",activity at 1000 µM,[1]; [7],0%
same,Relative activity DHAK (II) (substrate),[2],0%
CC(=O)C(C)O (centres unmarked) [Acetoin],activity at 1000 µM,[1]; [7],0%
same,Relative activity DHAK (II) (substrate),[2],0%
CC(=O)CO [Acetol],activity at 1000 µM,[1]; [7],0%
same,Relative activity DHAK (II) (substrate),[2],0%
Nc1ncnc2c1ncn2[C@@H]1O[C@H](COP(=O)(O)OP(=O)(O)OP(=O)(O)O)[C@@H](O)[C@H]1O [Adenosine 5'-triphosphate],Relative activity DHAK (I) (phosphate donor),[3],100%
same,Phosphate donor ranking for DHAK (I) (in words),[3]; summary of Table 2,best phosphate donor
same,Relative activity DHAK (II) (phosphate donor),[4],100%
same,Phosphate donor ranking for DHAK (II) (in words),[4]; summary of Table 2,best phosphate donor
[Ca+2].[Cl-].[Cl-] [CaCl2],Relative activity DHAK (II) (metal cation),[5],44%
same,Metal cation ranking for DHAK (I) (in words),[6]; [9],maximum activity
same,Relative activity DHAK (I) (metal cation),[6],125%
[Cl-].[Cl-].[Co+2] [CoCl2],Relative activity DHAK (II) (metal cation),[5],22%
same,Relative activity DHAK (I) (metal cation),[6],29%
Nc1ccn([C@@H]2O[C@H](COP(=O)(O)OP(=O)(O)OP(=O)(O)O)[C@@H](O)[C@H]2O)c(=O)n1 [Cytidine 5'-triphosphate],Relative activity DHAK (I) (phosphate donor),[3],0%
same,Relative activity DHAK (II) (phosphate donor),[4],0%
"O=C(CO)CO [DHA, dihydroxyacetone]",activity at 1000 µM,[1]; [8],100%
same,Relative activity DHAK (II) (substrate),[2],100%
same,Action of DHAK (II) on substrate (in words),[2],act on
O=P(O)(O)OCC(O)CO (centres unmarked) [Glycerol-3-phosphate],activity at 1000 µM,[1]; [8],0%
same,Relative activity DHAK (II) (substrate),[2],0%
OCC(O)CO [Glycerol],activity at 1000 µM,[1]; [8],0%
same,Relative activity DHAK (II) (substrate),[2],0%
Nc1nc2c(ncn2[C@@H]2O[C@H](COP(=O)(O)OP(=O)(O)OP(=O)(O)O)[C@@H](O)[C@H]2O)c(=O)[nH]1 [Guanosine 5'-triphosphate],Relative activity DHAK (I) (phosphate donor),[3],0%
same,Relative activity DHAK (II) (phosphate donor),[4],0%
O=P(O)(O)OP(=O)(O)OP(=O)(O)OC[C@H]1O[C@@H](n2cnc3c(O)ncnc32)[C@H](O)[C@@H]1O [Inosine 5'-triphosphate],Relative activity DHAK (I) (phosphate donor),[3],0%
same,Relative activity DHAK (II) (phosphate donor),[4],0%
O=S(=O)([O-])[O-].[Mg+2] [MgSO4],Metal cation ranking for DHAK (II) (in words),[5]; [9],maximum activity
same,Mg^2+ concentration giving sufficient activity of DHAK (II),[5]; [10],≥ 4 mM
same,Relative activity DHAK (II) (metal cation),[5],100%
same,Mg^2+ concentration giving sufficient activity of DHAK (I),[6]; [10],≥ 4 mM
same,Relative activity DHAK (I) (metal cation),[6],100%
[Cl][Mn][Cl] [MnCl2],Relative activity DHAK (II) (metal cation),[5],9%
same,Relative activity DHAK (I) (metal cation),[6],15%
[Cl][Ni][Cl] [NiCl2],Relative activity DHAK (II) (metal cation),[5],0%
same,Relative activity DHAK (I) (metal cation),[6],0%
O=c1ccn([C@@H]2O[C@H](COP(=O)(O)OP(=O)(O)OP(=O)(O)O)[C@@H](O)[C@H]2O)c(=O)[nH]1 [Uridine 5'-triphosphate],Relative activity DHAK (I) (phosphate donor),[3],3.9%
same,Relative activity DHAK (II) (phosphate donor),[4],3.6%
